Laboratory results taken from PubChem BioAssay (NCI).
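96-well plates; 48 h exposure; 5 concentrations. Endpoints by linear interpolation between flanking doses. Not reached: highest tested concentration assigned. GI50 = concentration required for 50% inhibition of growth. The concentration for full growth arrest is given as TGI.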

Experiments:
Test in all cases: NCI tumour cell line growth inhibition, 48 h
EKVX NSCLC = tested on: EKVX NSCLC
K-562 leukemia = tested on: K-562 leukemia
A498 renal = tested on: A498 renal
PC-3 prostate = tested on: PC-3 prostate
NCI-H460 lung = tested on: NCI-H460 lung
SF-539 CNS = tested on: SF-539 CNS
NCI-H226 lung = tested on: NCI-H226 lung
RPMI-8226 leukemia = tested on: RPMI-8226 leukemia
SNB-75 CNS = tested on: SNB-75 CNS
NCI/ADR-RES ovarian = tested on: NCI/ADR-RES ovarian
MDA-MB-231 breast = tested on: MDA-MB-231 breast
CCRF-CEM leukemia = tested on: CCRF-CEM leukemia
COLO 205 colon = tested on: COLO 205 colon
BT-549 breast = tested on: BT-549 breast
HOP-62 NSCLC = tested on: HOP-62 NSCLC
U251 CNS = tested on: U251 CNS
SF-295 CNS = tested on: SF-295 CNS
OVCAR-4 ovarian = tested on: OVCAR-4 ovarian
HCT-116 colon = tested on: HCT-116 colon
HS 578T breast = tested on: HS 578T breast
SF-268 CNS = tested on: SF-268 CNS
SK-MEL-5 melanoma = tested on: SK-MEL-5 melanoma
MOLT-4 leukemia = tested on: MOLT-4 leukemia
SW-620 colon = tested on: SW-620 colon
SK-OV-3 ovarian = tested on: SK-OV-3 ovarian
MCF7 breast = tested on: MCF7 breast
HT29 colon = tested on: HT29 colon
TK-10 renal = tested on: TK-10 renal
OVCAR-3 ovarian = tested on: OVCAR-3 ovarian
HOP-92 NSCLC = tested on: HOP-92 NSCLC

Question: Which TGI (EKVX NSCLC) does the source give for Cc1cn(-c2cc(NC(=O)c3cncc(C#Cc4cnc5ccc(O[C@@H]6CCOC6)nn45)c3)cc(C(F)(F)F)c2)cn1 here?
Answer: Its TGI is 1270 nM.

Question: What about the TGI (K-562 leukemia) of the same compound?
Answer: Its TGI is 3.25 µM.

Question: What about the GI50 (A498 renal) of the same compound?
Answer: The GI50 was 504 nM.

Question: What about the TGI (A498 renal) of the same compound?
Answer: Its TGI is 1090 nM.

Question: And the GI50 (PC-3 prostate)?
Answer: The GI50 was 280 nM.

Question: And the TGI (PC-3 prostate)?
Answer: Its TGI is 4.21 µM.

Question: What about the GI50 (NCI-H460 lung) of the same compound?
Answer: Its GI50 is 144 nM.

Question: What about the TGI (NCI-H460 lung) of the same compound?
Answer: Its TGI is 699 nM.

Question: And the GI50 (SF-539 CNS)?
Answer: The GI50 was 39.8 nM.

Question: And the TGI (SF-539 CNS)?
Answer: The TGI was 231 nM.

Question: And the GI50 (NCI-H226 lung)?
Answer: Its GI50 is 56.6 nM.

Question: And the TGI (NCI-H226 lung)?
Answer: The TGI was 454 nM.

Question: And the GI50 (RPMI-8226 leukemia)?
Answer: Its GI50 is 397 nM.

Question: What about the GI50 (SNB-75 CNS) of the same compound?
Answer: The GI50 was < 43.6 nM.

Question: What about the TGI (SNB-75 CNS) of the same compound?
Answer: The TGI was 226 nM.

Question: And the GI50 (NCI/ADR-RES ovarian)?
Answer: Its GI50 is 6.46 µM.

Question: And the TGI (NCI/ADR-RES ovarian)?
Answer: Its TGI is 23.1 µM.

Question: What about the GI50 (MDA-MB-231 breast) of the same compound?
Answer: The GI50 was 74 nM.

Question: What about the TGI (MDA-MB-231 breast) of the same compound?
Answer: Its TGI is 403 nM.

Question: And the GI50 (CCRF-CEM leukemia)?
Answer: The GI50 was 48.6 nM.

Question: What about the GI50 (COLO 205 colon) of the same compound?
Answer: Its GI50 is 75.7 nM.

Question: And the TGI (COLO 205 colon)?
Answer: The TGI was 213 nM.

Question: What about the GI50 (BT-549 breast) of the same compound?
Answer: The GI50 was 625 nM.

Question: What about the TGI (BT-549 breast) of the same compound?
Answer: Its TGI is 1730 nM.

Question: What about the GI50 (HOP-62 NSCLC) of the same compound?
Answer: The GI50 was 183 nM.

Question: And the TGI (HOP-62 NSCLC)?
Answer: Its TGI is 883 nM.

Question: What about the GI50 (U251 CNS) of the same compound?
Answer: Its GI50 is 246 nM.

Question: And the TGI (U251 CNS)?
Answer: Its TGI is 1020 nM.

Question: And the GI50 (SF-295 CNS)?
Answer: The GI50 was 355 nM.

Question: And the TGI (SF-295 CNS)?
Answer: Its TGI is 2410 nM.

Question: What about the GI50 (OVCAR-4 ovarian) of the same compound?
Answer: Its GI50 is 155 nM.

Question: And the TGI (OVCAR-4 ovarian)?
Answer: The TGI was 1000 nM.

Question: And the GI50 (HCT-116 colon)?
Answer: Its GI50 is 79.7 nM.

Question: What about the TGI (HCT-116 colon) of the same compound?
Answer: The TGI was 616 nM.

Question: And the GI50 (HS 578T breast)?
Answer: The GI50 was 124 nM.

Question: And the TGI (HS 578T breast)?
Answer: The TGI was 559 nM.

Question: And the GI50 (SF-268 CNS)?
Answer: Its GI50 is 191 nM.

Question: And the TGI (SF-268 CNS)?
Answer: Its TGI is 1030 nM.

Question: What about the GI50 (SK-MEL-5 melanoma) of the same compound?
Answer: The GI50 was 615 nM.

Question: What about the TGI (SK-MEL-5 melanoma) of the same compound?
Answer: The TGI was 1710 nM.

Question: What about the GI50 (MOLT-4 leukemia) of the same compound?
Answer: Its GI50 is 64.2 nM.

Question: What about the TGI (MOLT-4 leukemia) of the same compound?
Answer: Its TGI is 678 nM.

Question: What about the GI50 (SW-620 colon) of the same compound?
Answer: The GI50 was 157 nM.

Question: And the TGI (SW-620 colon)?
Answer: Its TGI is 557 nM.

Question: And the GI50 (SK-OV-3 ovarian)?
Answer: The GI50 was 392 nM.

Question: And the TGI (SK-OV-3 ovarian)?
Answer: Its TGI is 2230 nM.

Question: And the GI50 (MCF7 breast)?
Answer: Its GI50 is 72.9 nM.

Question: What about the TGI (MCF7 breast) of the same compound?
Answer: The TGI was 717 nM.

Question: And the GI50 (HT29 colon)?
Answer: Its GI50 is 188 nM.

Question: What about the TGI (HT29 colon) of the same compound?
Answer: The TGI was 947 nM.

Question: What about the GI50 (TK-10 renal) of the same compound?
Answer: The GI50 was 362 nM.

Question: And the TGI (TK-10 renal)?
Answer: The TGI was 1560 nM.

Question: And the GI50 (OVCAR-3 ovarian)?
Answer: The GI50 was 217 nM.

Question: And the TGI (OVCAR-3 ovarian)?
Answer: The TGI was 849 nM.

Question: What about the GI50 (HOP-92 NSCLC) of the same compound?
Answer: The GI50 was 22.8 nM.

Question: What about the TGI (HOP-92 NSCLC) of the same compound?
Answer: The TGI was 96.3 nM.
